The values below come from EP3122861B1, “LIQUID DETERGENT COMPOSITIONS COMPRISING AN ALPHA-AMYLASE” (priority 2014, dated 2015).

Test [1] in a line: Assay for measurement of free calcium ions (calcium ion selective electrode). The class given is physicochemical. The conditions noted are these: pH 8.0, 49 mM EPPS buffer, 80 mM potassium chloride, 21 °C; for chelator concentrations necessary to reduce the concentration of free calcium ions from 2.0 mM to 0.10 mM: by interpolation. As for the experimental part: The following assay may be used for the measurement of free calcium ions in solution, and thus for the determination of chelating agents (chelants) ability to reduce the concentration of free calcium ions (Ca2+) from e.g. 2.0 mM to 0.10 mM at pH 8.
Various amounts of chelants are added to a solution of 2.0 mM Ca2+ and the free Ca2+ concentration is determined by using a Calcium Ion Selective Electrode at fixed pH and temperature. The concentration of chelant necessary to reduce the concentration of free calcium from 2.0 mM to 0.10 mM can be determined from a plot of the free calcium concentration measured versus the concentration of chelant. In the present assay the concentration of chelant necessary to reduce the concentration of free calcium from 2.0 mM to 0.10 mM is measured at pH 8, at 21°C, in potassium chloride and 49 mM EPPS.
Electrolyte solution: 4 M potassium chloride in ultrapure water (Milli-Q water). pH 8 buffer: 50 mM EPPS (4-(2-Hydroxyethyl)piperazine-1-propanesulfonic acid) adjusted to pH 8.0 using minimum amounts of 1 N sodium hydroxide. Calcium stock solution: 25 mM Ca2+ in pH 8 buffer, made from CaCl2.2H2O. Chelant stock solution: 15 mM chelant (on a 100 % dry chelator basis) in pH 8 buffer, re-adjusted to pH 8.0 using minimum amounts of 1 M NaOH or 1 M HCl.
Calcium Ion Selective Electrode from Thermo Scientific (cat. No. 9720BNWP) calibrated against a Calcium chloride standard solution. The electrode is calibrated as described by the guidelines following the electrode.
A series of vials are prepared, each containing 4 mL of the calcium stock solution (final concentration 2.0 mM), 1 mL electrolyte solution (final concentration 80 mM potassium chloride), chelant stock solution in various amounts (0 - 45 mL) and using the pH 8 buffer for adjusting the total volume to 50 mL. The final concentration of EPPS in the assay is 49 mM. After mixing, the concentration of free Ca2+ is measured by the calcium electrode. The free calcium concentration should be determined at a sufficient number of different chelant concentrations for each chelant tested, ensuring that the data set covers the entire range from 2.0 mM free calcium ions to a value below 0.10 mM or the final chelant concentration in the assay is higher than 10.0 mM. A suitable number of data points are 8 or more. The chelant concentration required to lower the initial 2.0 mM free calcium ions to 0.10 mM is obtained from a plot of the measured free calcium ion concentration versus chelator concentration by interpolation.
The solutions are equilibrated to the desired temperature, which in the present assay is 21°C.
Chelating agents (chelants) may be ranked by their ability to reduce the concentration of free calcium ions (Ca2+) from 2.0 mM to 0.10 mM at pH 8 developed from a method described by M.K.Nagarajan et al., JAOCS, Vol. 61, no. 9 (September 1984), pp. 1475-1478. The assay described above under "Materials and Methods" for measuring of free calcium ions was used. Accordingly, the concentration of chelant necessary to reduce the water hardness from 2.0 mM to 0.10 mM was determined as described above. The experiment was carried out with the pH 8 buffer at 21 °C. Table 12.1: Concentration of free Ca2+ determined in a mixture of 2.0 mM Ca2+ and various amounts of chelating agent at pH 8.
A number of chelants were characterized using this assay, and the chelator concentrations necessary to reduce the concentration of free calcium ions from 2.0 mM to 0.10 mM at pH 8.0 in 49 mM EPPS buffer and 80 mM potassium chloride are shown below in Table 12.2. This table can thus also be used for comparing the capabilities of the chelating agents for reducing the concentration of free calcium ions. Table 12.2

Test [2] is described as follows: Determination of log K by ITC (isothermal titration calorimetry). The conditions noted are these: binding constant of chelator and calcium ions, pH 10. The source says: Chelating agents can also be characterized by the binding constant of the chelating agent (chelator) and calcium ions. This constant can be determined by ITC (isothermal titration calorimetry) as described by AD Nielsen, CC Fuglsang and […], Analytical Biochemistry Vol. 314 (2003) page 227-234 and T Wiseman, S Williston, JF Brandts and L-N Lin, Analytical Biochemistry Vol. 179 (1989) page 131-137. All glassware and plastic bottles used are washed with a 1 % (w/w) EDTA solution and subsequently rinsed thoroughly in Chelex 100 treated ultrapure water (Milli-Q water). Solutions are stored in plastic bottles and kept at 5°C until use. […] • 125 μM chelant in 20 mM HEPES, pH 8 or 125 μM chelant in 20 mM glycine, pH 10 • 4 mM CaCl2 in 20 mM HEPES, pH 8 or 4 mM CaCl2 in 20 mM glycine, pH 10 • Ultrapure water (Milli-Q water) […] All solutions are degassed by stirring under vacuum before the experiments. INSTRUMENT: MCS-ITC (MicroCal Inc., Northampton, MA, USA) The reference cell is filled with ultrapure water (Milli-Q water). The sample cell is filled with the chelant solution at the selected pH and the syringe is filled with the calcium solution at the selected pH. The solutions are equilibrated to the desired temperature, e.g. 19°C. […] The obtained signals from the ITC are then integrated using the Origin software supplied by MicroCal Inc. To obtain the binding isotherms, regression routines are made using the same software package. […] Presently preferred is the "OneSites" model which gives the best fit for most of the commonly used chelating agents, i.e. the residuals are evenly distributed around zero. […] Alternatively, the chelating agents can be characterized by the binding constant of the chelating agent (chelator) and calcium ions. This constant can be determined by ITC (isothermal titration calorimetry) as described by AD Nielsen, CC Fuglsang and […], Analytical Biochemistry Vol. 314 (2003) page 227-234 and T Wiseman, S Williston, JF Brandts and L-N Lin, Analytical Biochemistry Vol. 179 (1989) page 131-137. The procedure for the determination of log K is described in detail above under "Materials and Methods". Using this procedure for determination of log K, the following log K values for several chelating agents were determined at pH 10 (Table 12.3). Table 12.3
(ITC needs no label: the signal is the heat of the interaction.)

Regarding `O=C(O)CN(CCN(CC(=O)O)CC(=O)O)CCN(CC(=O)O)CC(=O)O` [DTPA, diethylenetriaminepentaacetic acid], in test [1], the “chelator concentration to reduce free calcium ions from 2.0 mM to 0.10 mM, Relative to citrate” value turned out to be 0.24 and the “chelator concentrations necessary to reduce the concentration of free calcium ions from 2.0 mM to 0.10 mM” value amounted to 1.87 mM. Further, the “Log K” value in test [2] was determined as 7.
The corresponding values for `CC(O)(P(=O)(O)O)P(=O)(O)O` [HEDP, 1-Hydroxyethylidene-1,1-Diphosphonic Acid] are 0.20, 1.60 mM and 6.
The corresponding values for `O=C(O)CN(CCN(CC(=O)O)CC(=O)O)CC(=O)O` [EDTA, ethylene diamine tetraacetate] are 0.21, 1.90 mM and 8.
With `O=P(O)(O)CN(CCN(CP(=O)(O)O)CP(=O)(O)O)CCN(CP(=O)(O)O)CP(=O)(O)O` [DTMPA, diethylenetriaminepenta(methylene-phosphonic acid)], in test [1], the “chelator concentration to reduce free calcium ions from 2.0 mM to 0.10 mM, Relative to citrate” value amounted to 0.25 and the “chelator concentrations necessary to reduce the concentration of free calcium ions from 2.0 mM to 0.10 mM” value was determined as 1.17 mM.
On to `O=C(O)CN(CCOCCOCCN(CC(=O)O)CC(=O)O)CC(=O)O` [EGTA, ethylene glycol tetraacetic acid], for which, in test [1], the “chelator concentration to reduce free calcium ions from 2.0 mM to 0.10 mM, Relative to citrate” value is 0.33 and the “chelator concentrations necessary to reduce the concentration of free calcium ions from 2.0 mM to 0.10 mM” value was determined as 2.60 mM. In addition, the “Log K” value in test [2] worked out at 9.
The corresponding values for `C[C@@H](C(=O)O)N(CC(=O)O)CC(=O)O` [MGDA, methylglycinediacetic acid or N,N'-bis(carboxymethyl)alanine] are 0.33, 2.56 mM and 2.56.
On to `O=C(O)CC(O)(CC(=O)O)C(=O)O` [Citrate], for which, in test [1], the “chelator concentration to reduce free calcium ions from 2.0 mM to 0.10 mM, Relative to citrate” value is listed as 1.00 and the “chelator concentrations necessary to reduce the concentration of free calcium ions from 2.0 mM to 0.10 mM” value worked out at 8.36 mM. Also, in test [2], the “Log K” value worked out at 3.
